Results taken from US20260078119A1, “DEGRADER COMPOUNDS AND USES THEREOF” (Bristol-Myers Squibb Company, priority 2024, published 2026).

Molecular target: T1, FAK (Homo sapiens, UniProt Q05397)
T1 construct: homozygous knock-in of a HiBiT tag (Promega Corporation, Madison, WI) to the C-terminus of the FAK gene in its natural genomic locus; endogenous in cells; host or cells: JHH-4-FAK-HiBiT clone d01 (CRISPR-Cas9 knock-in at the endogenous locus)
Test: FAK-HiBiT Degradation Assay
Format: cell-based
Conditions: for DC50: read-out: FAK HiBiT EC50; for FAK HiBiT Ymin: lower limit of the four parameter fit (value A), Ymax derived using DMSO control, JHH-4-FAK-HiBiT cells, two hours
Description: To generate JHH-4-FAK-HiBiT cells for the FAK degradation assay, JHH-4 cells (Japanese Collection of Research Biosources Cell Bank, Japan) were transfected with ribonucleoprotein reagents to introduce, by CRISPR-Cas9 editing, the homozygous knock-in of a HiBiT tag (Promega Corporation, Madison, WI) to the C-terminus of the FAK gene in its natural genomic locus. Clonal cell populations were established by expanding single cells after CRISPR-Cas9 editing, with a clonal cell line named JHH-4-FAK-HiBiT clone d01 confirmed by next generation DNA sequencing to contain the expected HiBiT edited FAK gene and was selected for FAK degradation screening. Cells were selected and maintained in complete DMEM media (DMEM, 10% Heat Inactivated FBS, and Non-Essential Amino Acids at 37° C. and 5% CO2). Cells were passaged every 3-4 days by reseeding 0.5×10^6 cells in a T75 flask.
Cells were dispensed into 384-well white plates (Corning #3570, NY) that were pre-spotted with compounds using an acoustic dispenser (Echo acoustic transfer system, Beckman Coulter Life Sciences, Carlsbad, CA) as a 10-point dose response curve with a 3-fold dilution starting at 1 μM and including a DMSO control. Twenty-five microliters of media containing 2000 JHH-4-FAK-HiBiT Clone d01 cells was dispensed per well. Assay plates were incubated at 37° C. with 5% CO2 for two hours. After incubation, 25 μL of Nano-Glo HiBiT Lytic Reagent Working Solution (Promega Corporation, Madison, WI) was added to each well and incubated at room temperature for 10 minutes protected from light. After 10 minutes, luminescence was read on a PHERAstar luminometer (BMG Labtech, Cary, NC).
To determine the half-maximal effective concentration (EC50) values for FAK-HiBIT degradation, a four parameter logistic model was used: (Sigmoidal Dose-Response Model)(FIT=(A+((B−A)/1+((C/x)^D)))) where C is the inflection point (EC50), D is the Hill slope, and A and B are the low and high limits of the fit respectively). The lower limit of the fit (value A) is referred to as Ymin. The maximum limit constraint, Ymax, was derived using DMSO control. The curves were processed and evaluated using Dotmatics Atlas (Insightful Science, LLC, Boston, MA).

[1] = JHH-4-FAK-HiBiT clone d01 cells, two hours incubation, 10-point dose response, 3-fold dilution starting at 1 μM, Nano-Glo HiBiT luminescence

T1 sequence (Q05397 whole entry): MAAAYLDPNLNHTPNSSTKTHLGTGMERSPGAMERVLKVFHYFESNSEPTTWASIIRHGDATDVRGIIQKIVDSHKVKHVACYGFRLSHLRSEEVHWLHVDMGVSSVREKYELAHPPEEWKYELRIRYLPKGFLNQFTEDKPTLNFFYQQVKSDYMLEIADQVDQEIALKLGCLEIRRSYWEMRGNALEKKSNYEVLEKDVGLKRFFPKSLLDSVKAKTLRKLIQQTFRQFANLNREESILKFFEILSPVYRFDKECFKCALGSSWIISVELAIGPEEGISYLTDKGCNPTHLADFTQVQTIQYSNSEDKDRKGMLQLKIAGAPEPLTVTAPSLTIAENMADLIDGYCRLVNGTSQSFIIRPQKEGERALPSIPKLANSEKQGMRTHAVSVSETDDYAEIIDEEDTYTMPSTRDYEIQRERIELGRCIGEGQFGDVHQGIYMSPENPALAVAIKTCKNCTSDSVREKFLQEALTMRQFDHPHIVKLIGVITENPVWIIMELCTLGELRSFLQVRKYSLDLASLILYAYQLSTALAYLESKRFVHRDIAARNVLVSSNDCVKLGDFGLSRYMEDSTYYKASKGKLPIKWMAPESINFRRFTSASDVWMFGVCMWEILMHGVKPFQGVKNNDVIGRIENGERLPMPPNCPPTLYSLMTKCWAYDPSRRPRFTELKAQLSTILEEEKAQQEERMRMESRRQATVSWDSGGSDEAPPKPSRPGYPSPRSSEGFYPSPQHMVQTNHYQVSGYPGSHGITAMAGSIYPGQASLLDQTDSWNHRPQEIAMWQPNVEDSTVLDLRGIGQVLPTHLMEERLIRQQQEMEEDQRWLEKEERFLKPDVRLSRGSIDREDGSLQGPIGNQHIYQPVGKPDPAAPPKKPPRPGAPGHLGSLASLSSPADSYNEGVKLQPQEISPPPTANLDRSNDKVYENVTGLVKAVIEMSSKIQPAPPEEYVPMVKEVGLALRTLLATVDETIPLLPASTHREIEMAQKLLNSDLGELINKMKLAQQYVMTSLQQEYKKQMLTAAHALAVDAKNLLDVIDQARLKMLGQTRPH

## N#Cc1ccc(-c2cc(N3CCC3)nc3c2cnn3Cc2cnc3c(c2)CN(C2CCC(=O)NC2=O)C3=O)c(Cl)c1 (stereo not shown) [Example 118, 4-[6-(azetidin-1-yl)-1-{[6-(2,6-dioxopiperidin-3-yl)-7-oxo-5H,6H,7H-pyrrolo[3,4-b]pyridin-3-yl]methyl}-1H-pyrazolo[3,4-b]pyridin-4-yl]-3-chlorobenzonitrile]
[1]
  DC50: 79.6 nM
  FAK HiBiT Ymin: 12.49

## Cc1ncccc1-c1cc(N2CC(F)C2)nc2c1cnn2Cc1ccc2c(c1)CN(C1CCC(=O)NC1=O)C2=O (stereo not shown) [Example 139, 3-(5-{[6-(3-fluoroazetidin-1-yl)-4-(2-methylpyridin-3-yl)-1H-pyrazolo[3,4-b]pyridin-1-yl]methyl}-1-oxo-2,3-dihydro-1H-isoindol-2-yl)piperidine-2,6-dione]
[1]
  DC50: ≥ 1000 nM
  FAK HiBiT Ymin: 93.99

## CC(C)Nc1cc(-c2ccncc2Cl)c2cnn(Cc3ccc4c(c3)CN(C3CCC(=O)NC3=O)C4=O)c2n1 (stereo not shown) [Example 116, 3-(5-{[4-(3-chloropyridin-4-yl)-6-[(propan-2-yl)amino]-1H-pyrazolo[3,4-b]pyridin-1-yl]methyl}-1-oxo-2,3-dihydro-1H-isoindol-2-yl)piperidine-2,6-dione]
[1]
  DC50: 67.2 nM
  FAK HiBiT Ymin: 34.23

## Cc1cccnc1-c1cc(N2CC(F)C2)nc2c1cnn2Cc1ccc2c(c1)CN(C1CCC(=O)NC1=O)C2=O (stereo not shown) [Example 112, 3-(5-{[6-(3-fluoroazetidin-1-yl)-4-(3-methylpyridin-2-yl)-1H-pyrazolo[3,4-b]pyridin-1-yl]methyl}-1-oxo-2,3-dihydro-1H-isoindol-2-yl)piperidine-2,6-dione]
[1]
  DC50: 46.7 nM
  FAK HiBiT Ymin: 18.51

## N#Cc1ccc(-c2cc(N3CC(F)C3)nc3c2cnn3Cc2ccc3c(c2)CN(C2CCC(=O)NC2=O)C3=O)c(F)c1 (stereo not shown) [Example 71, 4-(1-{[2-(2,6-dioxopiperidin-3-yl)-1-oxo-2,3-dihydro-1H-isoindol-5-yl]methyl}-6-(3-fluoroazetidin-1-yl)-1H-pyrazolo[3,4-b]pyridin-4-yl)-3-fluorobenzonitrile]
[1]
  DC50: 5.67 nM
  FAK HiBiT Ymin: 11.11

## N#Cc1ccc(-c2cc(N3CCC3)nc3c2cnn3Cc2ccc3c(c2)CN(C2CCC(=O)NC2=O)C3=O)c(F)c1 (stereo not shown) [Example 62, 4-[6-(azetidin-1-yl)-1-{[2-(2,6-dioxopiperidin-3-yl)-1-oxo-2,3-dihydro-1H-isoindol-5-yl]methyl}-1H-pyrazolo[3,4-b]pyridin-4-yl]-3-fluorobenzonitrile]
[1]
  DC50: 3.92 nM
  FAK HiBiT Ymin: 12.88

## N#Cc1ccc(-c2cc(N3CCC3)nc3c2c(Cl)nn3Cc2ccc3c(c2)CN(C2CCC(=O)NC2=O)C3=O)c(Cl)c1 (stereo not shown) [Example 70, 4-[6-(azetidin-1-yl)-3-chloro-1-{[2-(2,6-dioxopiperidin-3-yl)-1-oxo-2,3-dihydro-1H-isoindol-5-yl]methyl}-1H-pyrazolo[3,4-b]pyridin-4-yl]-3-chlorobenzonitrile]
[1]
  DC50: 5.6 nM
  FAK HiBiT Ymin: 13.38

## O=C1CCC(N2Cc3cc(Cn4ncc5c(-c6ncc(C7CC7)cc6F)cc(N6CC(F)C6)nc54)ccc3C2=O)C(=O)N1 (stereo not shown) [Example 86, 3-(5-{[4-(5-cyclopropyl-3-fluoropyridin-2-yl)-6-(3-fluoroazetidin-1-yl)-1H-pyrazolo[3,4-b]pyridin-1-yl]methyl}-1-oxo-2,3-dihydro-1H-isoindol-2-yl)piperidine-2,6-dione]
[1]
  DC50: 12.5 nM
  FAK HiBiT Ymin: 35.59

## N#Cc1ccc(-c2cc(N3CCC3)nc3c2cnn3Cc2ccc3c(c2)CN(C2CCC(=O)NC2=O)C3=O)c(Cl)c1 (stereo not shown) [Example 58, 4-[6-(azetidin-1-yl)-1-{[2-(2,6-dioxopiperidin-3-yl)-1-oxo-2,3-dihydro-1H-isoindol-5-yl]methyl}-1H-pyrazolo[3,4-b]pyridin-4-yl]-3-chlorobenzonitrile]
[1]
  DC50: 3.43 nM
  FAK HiBiT Ymin: 7.90

## CN(C)c1cc(-c2ncc(C#N)cc2Cl)c2ccn(Cc3ccc4c(c3)CN(C3CCC(=O)NC3=O)C4=O)c2n1 (stereo not shown) [Example 13, 5-chloro-6-(6-(dimethylamino)-1-((2-(2,6-dioxopiperidin-3-yl)-1-oxoisoindolin-5-yl)methyl)-1H-pyrrolo[2,3-b]pyridin-4-yl)nicotinonitrile]
[1]
  EC50: 7.86 nM
  FAK HiBiT Ymin: 4.03

## CN(C)c1nc(-c2ccc(C#N)cc2Cl)c2ccn(Cc3ccc4c(c3)CN(C3CCC(=O)NC3=O)C4=O)c2n1 (stereo not shown) [Example 27, 3-chloro-4-(2-(dimethylamino)-7-((2-(2,6-dioxopiperidin-3-yl)-1-oxoisoindolin-5-yl)methyl)-7H-pyrrolo[2,3-d]pyrimidin-4-yl)benzonitrile]
[1]
  DC50: 8.68 nM
  FAK HiBiT Ymin: 2.64

## CC(C)Nc1cc(-c2ncccc2Cl)c2cnn(Cc3ccc4c(c3)CN(C3CCC(=O)NC3=O)C4=O)c2n1 (stereo not shown) [Example 117, 3-(5-{[4-(3-chloropyridin-2-yl)-6-[(propan-2-yl)amino]-1H-pyrazolo[3,4-b]pyridin-1-yl]methyl}-1-oxo-2,3-dihydro-1H-isoindol-2-yl)piperidine-2,6-dione]
[1]
  DC50: 73.7 nM
  FAK HiBiT Ymin: 25.54

## Cc1nn(Cc2ccc3c(c2)CN(C2CCC(=O)NC2=O)C3=O)c2nc(N3CCC3)cc(-c3ccc(C#N)cc3Cl)c12 (stereo not shown) [Example 60, 4-[6-(azetidin-1-yl)-1-{[2-(2,6-dioxopiperidin-3-yl)-1-oxo-2,3-dihydro-1H-isoindol-5-yl]methyl}-3-methyl-1H-pyrazolo[3,4-b]pyridin-4-yl]-3-chlorobenzonitrile]
[1]
  DC50: 3.57 nM
  FAK HiBiT Ymin: 9.10

## O=C1CCC(N2Cc3cc(Cn4ncc5c(-c6ccc(C7(O)CCOCC7)cn6)cc(N6CC(F)C6)nc54)ccc3C2=O)C(=O)N1 (stereo not shown) [Example 122, 3-(5-{[6-(3-fluoroazetidin-1-yl)-4-[5-(4-hydroxyoxan-4-yl)pyridin-2-yl]-1H-pyrazolo[3,4-b]pyridin-1-yl]methyl}-1-oxo-2,3-dihydro-1H-isoindol-2-yl)piperidine-2,6-dione]
[1]
  DC50: 98.1 nM
  FAK HiBiT Ymin: 74.73

## CC(C)(O)c1ccc(Cl)c(-c2cc(N3CCC3)nc3c2cnn3Cc2ccc3c(c2)CN(C2CCC(=O)NC2=O)C3=O)c1 (stereo not shown) [Example 124, 3-(5-{[6-(azetidin-1-yl)-4-[2-chloro-5-(2-hydroxypropan-2-yl)phenyl]-1H-pyrazolo[3,4-b]pyridin-1-yl]methyl}-1-oxo-2,3-dihydro-1H-isoindol-2-yl)piperidine-2,6-dione]
[1]
  DC50: 124 nM
  FAK HiBiT Ymin: 43.76

## CC(C)Nc1cc(-c2ccc(C#N)cc2Cl)c2cnn(Cc3ccc4c(c3)CN(C3CCC(=O)NC3=O)C4=O)c2n1 (stereo not shown) [Example 68, 3-chloro-4-(1-{[2-(2,6-dioxopiperidin-3-yl)-1-oxo-2,3-dihydro-1H-isoindol-5-yl]methyl}-6-[(propan-2-yl)amino]-1H-pyrazolo[3,4-b]pyridin-4-yl)benzonitrile]
[1]
  DC50: 5.19 nM
  FAK HiBiT Ymin: 15.10

## O=C1CCC(N2Cc3cc(Cn4ncc5c(-c6ncccc6Cl)cc(N6CCC6)nc54)ccc3C2=O)C(=O)N1 (stereo not shown) [Example 88, 3-(5-{[6-(azetidin-1-yl)-4-(3-chloropyridin-2-yl)-1H-pyrazolo[3,4-b]pyridin-1-yl]methyl}-1-oxo-2,3-dihydro-1H-isoindol-2-yl)piperidine-2,6-dione]
[1]
  DC50: 13 nM
  FAK HiBiT Ymin: 10.98
